In patent publication US10351578B2, “Heterocyclic-substituted pyridinopyrimidinone derivative as CDK inhibitor and use thereof” (Shanghai Xunhe Pharmaceutical Technology Co. Ltd., priority 2016, dated 2019):

How the values were obtained:
[1] = target: T1, CDK4 protein kinase (GST-CDK4(1-303 end)) (Homo sapiens, UniProt P11802); test: CDK4 protein kinase activity, Caliper mobility shift assay; assay type: biochemical; conditions: substrate Peptide FAM-P8, 28° C. for 3 h
T1 construct: GST-CDK4(1-303 end); GST (N)
Description: (§1) Activity Assay: The CDK4 protein kinase activity was measured using the Caliper mobility shift assay (see J. Biomol. Screen, 2009, PP31). The test compound was dissolved in DMSO and diluted with a kinase buffer solution (20 mM HEPES-pH 7.5, 0.01% Triton X-100, 10 mM MgCl2, 2 mM DTT) and 5 μL of the compound at 5-fold final concentration of reaction dissolved in 10% DMSO was added in a 384-well plate. The compound-free control well was 5 μL of 10% DMSO, and the no-activity control well was 5 μL of kinase buffer. 10 μL of a 2.5-fold diluted CDK4 enzyme solution (GST-CDK4(1-303 end)) was added and incubated at room temperature for 10 min, and then 10 μL of the 2.5-fold diluted substrate solution Peptide FAM-P8 was added. The reaction was stopped by adding 25 μL of stop solution after incubation at 28° C. for 3 h, and the conversion rate data was read on a Caliper EZ Reader II (Caliper Life Sciences) and the conversion rate was converted to inhibition rate data according to above method. Among them, the inhibition rate %=(max−conversion)/(max−min)×100%.

[2] = target: T2, CDK6 protein kinase (GST-CDK6(1-326 end)) (Homo sapiens, UniProt Q00534); test: CDK6 protein kinase activity, Caliper mobility shift assay; assay type: biochemical; conditions: substrate Peptide FAM-P8, 28° C. for 3 h
T2 construct: GST-CDK6(1-326 end); GST (N)
Description: as §1, with “CDK6” for “CDK4”, “(GST-CDK6(1-326” for “(GST-CDK4(1-303”

T1 sequence (P11802 whole entry): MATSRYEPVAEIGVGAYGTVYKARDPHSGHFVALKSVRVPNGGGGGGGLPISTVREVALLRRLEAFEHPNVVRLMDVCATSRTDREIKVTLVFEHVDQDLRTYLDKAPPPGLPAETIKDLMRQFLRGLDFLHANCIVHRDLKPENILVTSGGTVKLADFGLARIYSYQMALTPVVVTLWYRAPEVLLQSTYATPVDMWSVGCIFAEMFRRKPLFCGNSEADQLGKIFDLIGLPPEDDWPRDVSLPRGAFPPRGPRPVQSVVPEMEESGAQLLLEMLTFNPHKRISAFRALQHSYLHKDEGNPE
T1 sequence (P30281 whole entry partner): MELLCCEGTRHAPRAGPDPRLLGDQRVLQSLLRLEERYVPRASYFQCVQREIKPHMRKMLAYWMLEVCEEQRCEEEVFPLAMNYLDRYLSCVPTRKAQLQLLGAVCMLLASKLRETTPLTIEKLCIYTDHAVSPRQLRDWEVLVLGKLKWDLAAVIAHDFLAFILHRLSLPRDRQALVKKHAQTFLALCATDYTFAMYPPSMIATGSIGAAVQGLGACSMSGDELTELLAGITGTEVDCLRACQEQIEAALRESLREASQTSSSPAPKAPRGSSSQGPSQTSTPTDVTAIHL
T2 sequence (Q00534 whole entry): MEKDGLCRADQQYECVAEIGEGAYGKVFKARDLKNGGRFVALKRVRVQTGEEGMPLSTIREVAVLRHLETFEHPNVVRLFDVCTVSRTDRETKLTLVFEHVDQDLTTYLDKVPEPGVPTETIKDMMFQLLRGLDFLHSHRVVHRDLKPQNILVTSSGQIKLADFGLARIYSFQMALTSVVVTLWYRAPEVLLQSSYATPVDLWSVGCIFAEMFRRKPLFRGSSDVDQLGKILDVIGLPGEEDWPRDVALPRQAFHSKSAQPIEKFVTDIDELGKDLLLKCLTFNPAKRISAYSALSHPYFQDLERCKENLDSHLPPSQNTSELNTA
T2 sequence (P30281 whole entry partner): as the sequence (P30281 whole entry partner) above

With `CN(C)C(=O)C1Oc2cnc(Nc3ccc(N4CCNCC4)cn3)nc2N(C2CCCC2)C1=O` (stereo not shown) [Compound I-33, N,N-dimethyl-6-carboxamide-8-cyclopentyl-2-(5-(1-piperazinyl)-pyridin-2-amino)-6H-pyrimido[5,4-b][1,4]oxazin-7(8H)-one] the IC50 [1] was ≤ 20 nM and the IC50 [2] was ≤ 20 nM.
An IC50 [1] of 20 to 100 nM and an IC50 [2] of 20 to 100 nM were found for `CC1(C)Oc2cnc(Nc3ccc(N4CCNCC4)cn3)nc2N(c2ccccc2)C1=O` [Compound I-35, 6,6-dimethyl-8-phenyl-2-(5-(1-piperazinyl)-pyridin-2-amino)-6H-pyrimido[5,4-b][1,4]oxazin-7(8H)-one] in this work.
`O=C1C(C(F)(F)F)Oc2cnc(Nc3ccc(N4CCNCC4)cn3)nc2N1C1CCCC1` (stereo not shown) [Compound I-11, 6-trifluoromethyl-8-cyclopentyl-2-(5-(1-piperazinyl)-pyridin-2-amino)-6H-pyrimido[5,4-b][1,4]oxazin-7(8H)-one] was tested, and the IC50 [1] was ≤ 20 nM and the IC50 [2] was 20 to 100 nM.
For “8′-cyclopentyl-2′-(5-(4-ethyl-1-piperazinyl)-pyridin-2-amino)spiro[cycloprop-1,6′-pyrimido[5,4-b][1,4]oxazin]-7′(8′H)-one [Compound I-25]”, the IC50 [1] was ≤ 20 nM and the IC50 [2] was ≤ 20 nM.
`CCN1CCN(Cc2ccc(Nc3ncc4c(n3)N(C3CCCC3)C(=O)C(C#N)O4)nc2)CC1` (stereo not shown) [Compound I-27, 6-cyano-8-cyclopentyl-2-(5-(4-ethyl-1-piperazinyl)methyl-pyridin-2-amino)-6H-pyrimido[5,4-b][1,4]oxazin-7(8H)-one] was tested, and the IC50 [1] was ≤ 20 nM and the IC50 [2] was ≤ 20 nM.
In the case of `O=C1N(C2CCCC2)c2nc(Nc3ccc(N4CCNCC4)cn3)ncc2OC12CCCC2` [Compound I-6, 8′-cyclopentyl-2′-(5-(1-piperazinyl)-pyridin-2-amino)spiro[cyclopenta-1,6′-pyrimido[5,4-b][1,4]oxazin]-7′(8′H)-one], the IC50 [1] is reported as ≤ 20 nM and the IC50 [2] is reported as 20 to 100 nM.
For `CC1(C)Sc2cnc(Nc3ccc(N4CCN(C5CCCCCC5)CC4)cn3)nc2N(C2CCCC2)C1=O` [Compound I-23, 6,6-dimethyl-8-cyclopentyl-2-(5-(4-cycloheptyl-1-piperazinyl)-pyridin-2-amino)-6H-pyrimido[5,4-b][1,4]thiazin-7(8H)-one], the IC50 [1] was ≤ 20 nM and the IC50 [2] was ≤ 20 nM.
With `CC(C)N1C(=O)C(C)(C)Oc2cnc(Nc3ccc(N4CCNCC4)cn3)nc21` [Compound I-1, 6,6-Dimethyl-8-isopropyl-2-(5-(1-piperazinyl)-pyridin-2-amino)-6H-pyrimido[5,4-b][1,4]oxazin-7(8H)-one] the IC50 [1] was ≤ 20 nM and the IC50 [2] was ≤ 20 nM.
`O=C1C(C2CC2)Oc2cnc(Nc3ccc(N4CCNCC4)cn3)nc2N1C1CCCC1` (stereo not shown) [Compound I-13, 6-cyclopropyl-8-cyclopentyl-2-(5-(1-piperazinyl)-pyridin-2-amino)-6H-pyrimido[5,4-b][1,4]oxazin-7(8H)-one] was tested, and the IC50 [1] was ≤ 20 nM and the IC50 [2] was ≤ 20 nM.
For `CCN1CCN(Cc2ccc(Nc3ncc4c(n3)N(c3ncccn3)C(=O)C(C)(C)O4)nc2)CC1` [Compound I-31, 6,6-dimethyl-8-(2-pyrimidinyl)-2-(5-(4-ethyl-1-piperazinyl)methyl-pyridine-2-amino)-6H-pyrimido[5,4-b][1,4]oxazin-7(8H)-one], the IC50 [1] was ≤ 20 nM and the IC50 [2] was ≤ 20 nM.
With `CC1(C)Oc2cnc(Nc3ccc(N4CCN(C5CCCCC5)CC4)cn3)nc2N(C2CCCC2)C1=O` [Compound I-22, 6,6-dimethyl-8-cyclopentyl-2-(5-(4-cyclohexyl-1-piperazinyl)-pyridin-2-amino)-6H-pyrimido[5,4-b][1,4]oxazin-7(8H)-one] the IC50 [1] was ≤ 20 nM and the IC50 [2] was ≤ 20 nM.
